From patent US20250313533A1, “QUINOLINE CARBOXYLIC ACID ESTER COMPOUND AND PREPARATION METHOD AND USE THEREOF” (priority 2019, published 2025)

Experiments:
[1] = tested on: cucumber seedlings; experiment: Safety for plant growth after application; assay type: in vivo; conditions: dosage 200 ppm
Outline: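 Read-outs are chlorophyll content, leaf area and the rate of increase in plant height, all measured on cucumber seedlings kept in pots indoors after application.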

[2] = tested on: pathogenic bacteria causing bacterial angular leaf spot in cucumbers; experiment: In vitro bactericidal activity, bacterial angular leaf spot in cucumbers; assay type: cell-based, pseudomonas; conditions: read-out: inhibitory rate; for inhibition at 1 ppm: dosage 1 ppm; for inhibition at 5 ppm: dosage 5 ppm
[3] = tested on: pathogenic bacteria causing stem rot in sweet potatoes; experiment: In vitro bactericidal activity, stem rot in sweet potatoes; assay type: cell-based, dikia; conditions: read-out: inhibitory rate; for inhibition at 1 ppm: dosage 1 ppm; for inhibition at 5 ppm: dosage 5 ppm
[4] = tested on: indoor potted cucumber seedlings; experiment: Effect of improving growth and development of crops; assay type: in vivo; set-up: Rate of growth rate increase (%): concentration or dose not given beside the values; conditions: versus blank control; for Rate of chlorophyll content increase (%) / Rate of leaf area increase (%): 14 days after application; for Rate of growth rate increase (%): plant height 14 days after application; for Rate of leaf area increase (%): second leaf
Description: Taking indoor potted cucumber seedlings as an example, the influence of the compound disclosed herein on growth rate of plant height, chlorophyll content, leaf area, etc. of crops was mainly evaluated.
The plant heights of plants before application and 14 days after the application were measured.
The growth rates were calculated according to formula (1)
The rates of the growth rate increase (%) were calculated according to formula (2)
The longitudinal and transverse diameters (i.e., leaf length and leaf width, respectively, wherein the leaf length is the distance from the base to the tip of a leaf, and leaf width is the measured value of the upper shoulder width of the leaf) of the second leaf of plants before application and 14 days after the application were measured.
The leaf areas were calculated according to formula (3)
The leaf area increases were calculated according to formula (4)
The rates of the leaf area increases were calculated according to formula (5)
The chlorophyll contents of leaves were measured by using a chlorophyll measuring instrument (model: SPAD-520 Plus).
The chlorophyll content increases were calculated according to formula (6)
The rates of the chlorophyll content increases were calculated according to formula (7)

[5] = tested on: pathogenic bacteria causing bacterial wilt in cassava; experiment: organism not typed; assay type: cell-based; conditions: read-out: inhibitory rate
[6] = tested on: pathogenic bacteria causing fire blight in pears; experiment: In vitro bactericidal activity, fire blight in pears; assay type: cell-based, erwinia; conditions: Erwinia, read-out: inhibitory rate; for inhibition at 1 ppm: dosage 1 ppm; for inhibition at 5 ppm: dosage 5 ppm
[7] = tested on: pathogenic bacteria causing fruit blotch in watermelons; experiment: In vitro bactericidal activity, fruit blotch in watermelons; assay type: cell-based, acidovorax; conditions: read-out: inhibitory rate; for inhibition at 1 ppm: dosage 1 ppm; for inhibition at 5 ppm: dosage 5 ppm
[8] = tested on: pathogenic bacteria causing black shank in potatoes; experiment: In vitro bactericidal activity, black shank in potatoes; assay type: cell-based; conditions: read-out: inhibitory rate; for inhibition at 1 ppm: dosage 1 ppm; for inhibition at 5 ppm: dosage 5 ppm
[9] = tested on: pathogenic bacteria causing bacterial wilt in tobacco; experiment: whole plant or invertebrate; assay type: cell-based, ralstonia; conditions: read-out: inhibitory rate
[10] = tested on: soft rot in Chinese cabbages; experiment: whole plant or invertebrate; conditions: 48 h, read-out: efficacy against soft rot in Chinese cabbages
[11] = tested on: stem rot in sweet potatoes; experiment: whole plant or invertebrate; conditions: read-out: efficacy against stem rot in sweet potatoes
[12] = tested on: black shank in potatoes; experiment: Living crops in vivo protective activity, potatoes (root irrigation); conditions: Solanum tuberosum, read-out: efficacy against black shank in potatoes; for pest or weed control at 5 ppm: dosage 5 ppm; for pest or weed control at 10 ppm: dosage 10 ppm
Description: Root irrigation was carried out on the potatoes for tests according to the designed concentration of the agents. The dosage for each plant was 200 mL and was kept consistent (also for the control). The black shank bacteria were inoculated on the second day after the application. The results were investigated according to the disease condition.

[13] = tested on: pathogenic bacteria causing black rot in Chinese cabbages; experiment: In vitro bactericidal activity, black rot in Chinese cabbages; assay type: cell-based, xanthomonas; conditions: Xanthomonas, read-out: inhibitory rate; for inhibition at 1 ppm: dosage 1 ppm; for inhibition at 5 ppm: dosage 5 ppm
[14] = tested on: bacterial wilt in tobacco; experiment: whole plant or invertebrate; conditions: Nicotiana tabacum, read-out: efficacy against bacterial wilt in tobacco
[15] = tested on: pathogenic bacteria causing bacterial blight in rice; experiment: whole plant or invertebrate; assay type: cell-based, xanthomonas; conditions: read-out: inhibitory rate
[16] = tested on: bacterial blight in rice; experiment: whole plant or invertebrate; conditions: Oryza sativa, read-out: efficacy against bacterial blight in rice
[17] = tested on: fruit blotch in watermelons; experiment: whole plant or invertebrate; conditions: read-out: efficacy against fruit blotch in watermelons

Structure (SMILES)	safety for plant growth (discoloration, necrosis, wilt, malformation) [1]	inhibition at 1 ppm [2] [%]	inhibition at 5 ppm [2] [%]	inhibition at 1 ppm [3] [%]	inhibition at 5 ppm [3] [%]	Rate of chlorophyll content increase (%) [4] [%]	Rate of growth rate increase (%) [4] [%]	Rate of leaf area increase (%) [4] [%]	inhibition at 1 ppm [5] [%]	inhibition at 5 ppm [5] [%]	inhibition at 1 ppm [6] [%]	inhibition at 5 ppm [6] [%]	inhibition at 1 ppm [7] [%]	inhibition at 5 ppm [7] [%]	inhibition at 1 ppm [8] [%]	inhibition at 5 ppm [8] [%]	inhibition at 1 ppm [9] [%]	inhibition at 5 ppm [9] [%]	pest or weed control at 5 ppm [10] [%]	pest or weed control at 10 ppm [10] [%]	also measured
COCCOC(=O)c1cn(C2CC2)c2cc(F)ccc2c1=O [Compound 195]	safe for plant growth	≥ 90	≥ 90	≥ 90	≥ 90	12	7	9	≥ 90	≥ 90	≥ 90	≥ 90	≥ 90	≥ 90	≥ 90	≥ 90	≥ 90	≥ 90	≥ 90	≥ 90	pest or weed control at 5 ppm [11]: ≥ 90%; pest or weed control at 10 ppm [11]: ≥ 90%; pest or weed control at 5 ppm [12]: ≥ 90%; pest or weed control at 10 ppm [12]: ≥ 90%; inhibition at 1 ppm [13]: ≥ 90%; inhibition at 5 ppm [13]: ≥ 90%; pest or weed control at 5 ppm [14]: ≥ 90%; pest or weed control at 10 ppm [14]: ≥ 90%; inhibition at 1 ppm [15]: ≥ 90%; inhibition at 5 ppm [15]: ≥ 90%; pest or weed control at 5 ppm [16]: ≥ 90%; pest or weed control at 10 ppm [16]: ≥ 90%; pest or weed control at 5 ppm [17]: ≥ 90%; pest or weed control at 10 ppm [17]: ≥ 90%
O=C(OCCCO)c1cn(C2CC2)c2cc(F)ccc2c1=O [Compound 207]	safe for plant growth	≥ 90	≥ 90	≥ 90	≥ 90	13	6	10	≥ 90	≥ 90	≥ 90	≥ 90	≥ 90	≥ 90	≥ 90	≥ 90	≥ 90	≥ 90	≥ 90	≥ 90	pest or weed control at 5 ppm [11]: ≥ 90%; pest or weed control at 10 ppm [11]: ≥ 90%; pest or weed control at 5 ppm [12]: ≥ 90%; pest or weed control at 10 ppm [12]: ≥ 90%; inhibition at 1 ppm [13]: ≥ 90%; inhibition at 5 ppm [13]: ≥ 90%; pest or weed control at 5 ppm [14]: ≥ 90%; pest or weed control at 10 ppm [14]: ≥ 90%; inhibition at 1 ppm [15]: ≥ 90%; inhibition at 5 ppm [15]: ≥ 90%; pest or weed control at 5 ppm [16]: ≥ 90%; pest or weed control at 10 ppm [16]: ≥ 90%; pest or weed control at 5 ppm [17]: ≥ 90%; pest or weed control at 10 ppm [17]: ≥ 90%
COCCCOC(=O)c1cn(C2CC2)c2cc(F)ccc2c1=O [Compound 208]	safe for plant growth	≥ 90	≥ 90	≥ 90	≥ 90	12	5	11	≥ 90	≥ 90	≥ 90	≥ 90	≥ 90	≥ 90	≥ 90	≥ 90	≥ 90	≥ 90	≥ 90	≥ 90	pest or weed control at 5 ppm [11]: ≥ 90%; pest or weed control at 10 ppm [11]: ≥ 90%; pest or weed control at 5 ppm [12]: ≥ 90%; pest or weed control at 10 ppm [12]: ≥ 90%; inhibition at 1 ppm [13]: ≥ 90%; inhibition at 5 ppm [13]: ≥ 90%; pest or weed control at 5 ppm [14]: ≥ 90%; pest or weed control at 10 ppm [14]: ≥ 90%; inhibition at 1 ppm [15]: ≥ 90%; inhibition at 5 ppm [15]: ≥ 90%; pest or weed control at 5 ppm [16]: ≥ 90%; pest or weed control at 10 ppm [16]: ≥ 90%; pest or weed control at 5 ppm [17]: ≥ 90%; pest or weed control at 10 ppm [17]: ≥ 90%
